Results: patent US12030876B2, “Aryl hydrocarbon receptor (AHR) agonists and uses thereof” (Ikena Oncology, Inc., priority 2019, dated 2024)

How the values were obtained:
AHR [1] = target: T1, AHR (Mus musculus, UniProt P30561); assay: DRE-Luciferase Reporter Assay, Hepa1.6 (agonist); type: cell-based, murine; details: Hepa1.6, Table 3; read-out: DRE-Luc Hepa1.6 - Agonist: Average EC50
T1 sequence (P30561 1-848 F348L/P471L): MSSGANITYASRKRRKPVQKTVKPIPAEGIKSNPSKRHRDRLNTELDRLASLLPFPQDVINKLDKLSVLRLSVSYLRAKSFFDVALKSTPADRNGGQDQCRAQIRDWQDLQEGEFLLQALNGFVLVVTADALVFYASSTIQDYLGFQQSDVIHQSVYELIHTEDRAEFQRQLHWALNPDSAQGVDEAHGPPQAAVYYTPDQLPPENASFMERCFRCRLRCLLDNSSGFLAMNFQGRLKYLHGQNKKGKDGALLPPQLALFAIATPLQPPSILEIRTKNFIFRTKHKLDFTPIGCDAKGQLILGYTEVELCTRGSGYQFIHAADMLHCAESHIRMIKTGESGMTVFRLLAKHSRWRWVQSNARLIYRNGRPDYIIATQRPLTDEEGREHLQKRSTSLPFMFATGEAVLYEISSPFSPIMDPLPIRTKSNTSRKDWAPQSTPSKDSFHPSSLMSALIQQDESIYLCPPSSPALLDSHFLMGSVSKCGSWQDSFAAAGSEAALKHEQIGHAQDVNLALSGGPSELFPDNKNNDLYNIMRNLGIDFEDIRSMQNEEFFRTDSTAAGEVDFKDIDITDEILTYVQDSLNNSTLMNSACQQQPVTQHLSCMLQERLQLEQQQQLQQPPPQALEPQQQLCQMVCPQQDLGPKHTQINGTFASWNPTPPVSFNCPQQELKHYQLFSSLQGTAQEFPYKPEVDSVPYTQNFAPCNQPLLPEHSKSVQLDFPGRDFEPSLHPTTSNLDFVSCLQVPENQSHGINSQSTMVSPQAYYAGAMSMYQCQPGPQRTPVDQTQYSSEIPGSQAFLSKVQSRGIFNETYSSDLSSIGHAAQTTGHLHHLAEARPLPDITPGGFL
Protocol: DRE-Luciferase Reporter Assay
AHR binds to Dioxin Responsive Elements (DRE) upstream of genes that it activates. One measure of AHR activity is activation of a reporter gene, such as luciferase, downstream of one or multiple DRE elements. Luciferase activity reflects activation and inhibition of AHR in the cells expressing this reporter.
Murine Hepa1-6 or Hepa-1c1c7 or other murine cell line with a DRE-luciferase reporter either stably or transiently transfected are plated in media in plates (96-well, 384-well or other plates) and incubated overnight at 37 C in a CO2 incubator. Likewise, human HepG2 or other human cell line with a DRE-luciferase reporter either stably or transiently transfected are plated in media in plates (96-well, 384-well or other plates) and incubated overnight at 37 C in a CO2 incubator.
The next day, an AHR agonist compound is added. Cells are incubated for 6, 16 or 24 hours or another time point and then lysed for determination of luciferase activity as a read-out of the AHR activation. Luciferase can be measured with a commercial kit such as the Promega Luciferase kit or any kit or reagents that provide the luciferin substrate for measuring luciferase activity. The level of luciferase with only activating ligand (e.g. such as TCDD, kynurenine, ITE (2-(1H-indole-3-ylcarbonyl)-4-thiazolecarboxylic methyl ester), VAF347, BNF (beta-naphthoflavone), ICZ (6-formylindolo(3,2-b) carbazole or other AHR ligands) added is the maximum signal while the luciferase with no ligand is the minimum signal. EC50s can be determined as the concentration which activates half of the maximum luciferase activity.

AHR [2] = target: T2, AHR (Homo sapiens, UniProt P35869); assay: DRE-Luciferase Reporter Assay, HepG2 (agonist); type: cell-based; details: HepG2, Table 3; read-out: DRE-Luc HepG2 - Agonist: Average EC50
T2 construct: endogenous in cells; host or cells: HepG2 (human), transfected with a DRE-luciferase reporter only
T2 sequence (P35869 11-848): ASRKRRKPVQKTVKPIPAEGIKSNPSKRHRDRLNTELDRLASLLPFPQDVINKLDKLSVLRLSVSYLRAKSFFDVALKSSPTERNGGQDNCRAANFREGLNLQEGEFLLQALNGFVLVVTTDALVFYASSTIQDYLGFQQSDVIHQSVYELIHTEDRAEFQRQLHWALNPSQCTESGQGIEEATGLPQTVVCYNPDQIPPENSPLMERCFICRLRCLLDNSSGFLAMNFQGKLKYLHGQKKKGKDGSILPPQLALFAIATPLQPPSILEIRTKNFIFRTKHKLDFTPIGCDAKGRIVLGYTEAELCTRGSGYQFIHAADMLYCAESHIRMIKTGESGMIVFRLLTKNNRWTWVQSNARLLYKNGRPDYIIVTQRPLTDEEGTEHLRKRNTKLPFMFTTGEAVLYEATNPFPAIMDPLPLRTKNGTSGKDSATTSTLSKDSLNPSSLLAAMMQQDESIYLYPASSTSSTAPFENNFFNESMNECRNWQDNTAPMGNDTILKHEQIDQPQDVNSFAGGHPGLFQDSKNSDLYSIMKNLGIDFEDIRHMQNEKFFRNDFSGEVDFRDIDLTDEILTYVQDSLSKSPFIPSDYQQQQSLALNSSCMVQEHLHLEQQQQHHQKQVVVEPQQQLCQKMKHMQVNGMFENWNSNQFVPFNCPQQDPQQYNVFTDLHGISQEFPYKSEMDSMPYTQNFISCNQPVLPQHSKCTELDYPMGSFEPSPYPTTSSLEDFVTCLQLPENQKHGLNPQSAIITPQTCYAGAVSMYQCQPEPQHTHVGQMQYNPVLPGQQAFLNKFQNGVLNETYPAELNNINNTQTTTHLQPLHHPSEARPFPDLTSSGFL
In short: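 Cells carrying a stably or transiently transfected DRE-luciferase reporter, plated overnight at 37 C, then given agonist for 6, 16 or 24 h before lysis and luciferase read-out. Signal scaled between no ligand (minimum) and activating ligand alone, e.g. TCDD (maximum); EC50 = concentration giving half-maximal luciferase activity.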

SMILES: O=c1cc(-c2nsc(Nc3cccc(C(F)(F)F)c3)n2)cc[nH]1 [I-128]
- EC50 (AHR [1]): > 1000 nM
- EC50 (AHR [2]): < 10 nM

SMILES: O=c1cccc(-c2csc(Nc3cccc(C(F)(F)F)c3)n2)[nH]1 [I-130]
- EC50 (AHR [1]): < 10 nM
- EC50 (AHR [2]): < 10 nM

SMILES: CSc1cccc(Nc2nc(-c3cccc([N+](=O)[O-])c3)cs2)c1 [I-136]
- EC50 (AHR [1]): 100 to 1000 nM
- EC50 (AHR [2]): < 10 nM

SMILES: COc1cc(-n2cnc(Nc3cccc(C(F)(F)F)c3)n2)ccn1 [I-143]
- EC50 (AHR [1]): > 1000 nM
- EC50 (AHR [2]): 100 to 1000 nM

SMILES: O=c1cc(-n2cnc(Nc3cccc(C(F)(F)F)c3)n2)cc[nH]1 [I-144]
- EC50 (AHR [1]): > 1000 nM
- EC50 (AHR [2]): 10 to 100 nM

SMILES: N#Cc1cccc(-n2cnc(Nc3cccc(C(F)(F)F)c3)n2)c1 [I-145]
- EC50 (AHR [1]): > 1000 nM
- EC50 (AHR [2]): < 10 nM

SMILES: C[N+](C)(C)CCNC(=O)N(c1cccc(C(F)(F)F)c1)c1nc(-c2cc[nH]c(=O)c2)cs1 [I-146]
- EC50 (AHR [1]): > 1000 nM
- EC50 (AHR [2]): < 10 nM

SMILES: NC(=O)c1cccc(Nc2nc(-c3ccc[n+]([O-])c3)cs2)c1 [I-147]
- EC50 (AHR [1]): > 1000 nM
- EC50 (AHR [2]): 100 to 1000 nM

SMILES: C[N+](C)(CCNC(=O)N(c1cccc(C(F)(F)F)c1)c1nc(-c2cccc([N+](=O)[O-])c2)cs1)CCNC(=O)N(c1cccc(C(F)(F)F)c1)c1nc(-c2cccc([N+](=O)[O-])c2)cs1 [I-148]
- EC50 (AHR [1]): 100 to 1000 nM
- EC50 (AHR [2]): 10 to 100 nM

SMILES: C[N+](C)(C)CCOc1cc(-c2csc(Nc3cccc(C(F)(F)F)c3)n2)ccn1 [I-149]
- EC50 (AHR [1]): 100 to 1000 nM
- EC50 (AHR [2]): 100 to 1000 nM

SMILES: N#Cc1cccc(-c2nc(Nc3cccc(C(F)(F)F)c3)no2)c1 [I-152]
- EC50 (AHR [1]): > 1000 nM
- EC50 (AHR [2]): > 1000 nM

SMILES: CN(C)c1cc(-c2csc(Nc3cccc(C(F)(F)F)c3)n2)ccn1 [I-153]
- EC50 (AHR [1]): > 1000 nM
- EC50 (AHR [2]): 10 to 100 nM

SMILES: CNc1cc(-c2csc(Nc3cccc(C(F)(F)F)c3)n2)ccn1 [I-154]
- EC50 (AHR [1]): 10 to 100 nM
- EC50 (AHR [2]): < 10 nM

SMILES: CCCOc1cc(-c2csc(Nc3cccc(C(F)(F)F)c3)n2)ccn1 [I-155]
- EC50 (AHR [1]): > 1000 nM
- EC50 (AHR [2]): 10 to 100 nM

SMILES: Nc1cc(-c2csc(Nc3cccc(C(F)(F)F)c3)n2)ccn1 [I-156]
- EC50 (AHR [1]): < 10 nM
- EC50 (AHR [2]): < 10 nM

SMILES: N#Cc1cccc(-c2noc(Nc3cccc(C(F)(F)F)c3)n2)c1 [I-157]
- EC50 (AHR [1]): > 1000 nM
- EC50 (AHR [2]): 100 to 1000 nM

SMILES: [O-][n+]1cccc(-n2cnc(Nc3cccc(C(F)(F)F)c3)n2)c1 [I-158]
- EC50 (AHR [1]): > 1000 nM
- EC50 (AHR [2]): 10 to 100 nM

SMILES: C[N+]1(C)CCN(C(=O)c2cccc(Nc3nc(-c4ccc[n+]([O-])c4)cs3)c2)CC1 [I-159]
- EC50 (AHR [1]): > 1000 nM
- EC50 (AHR [2]): > 1000 nM

SMILES: COC(=O)COc1cc(-c2csc(Nc3cccc(C(F)(F)F)c3)n2)ccn1 [I-160]
- EC50 (AHR [1]): > 1000 nM
- EC50 (AHR [2]): < 10 nM

SMILES: O=C(O)c1cc(/N=N/c2cccc(-c3csc(Nc4cccc(C(F)(F)F)c4)n3)c2)ccc1O [I-162]
- EC50 (AHR [1]): > 1000 nM
- EC50 (AHR [2]): > 1000 nM

SMILES: Nc1cc(-c2csc(Nc3cccc(C(F)(F)F)c3)n2)ccc1F [I-163]
- EC50 (AHR [1]): < 10 nM
- EC50 (AHR [2]): < 10 nM

SMILES: Nc1cncc(-c2csc(Nc3cccc(C(F)(F)F)c3)n2)c1 [I-164]
- EC50 (AHR [1]): < 10 nM
- EC50 (AHR [2]): < 10 nM

SMILES: Nc1cc(-c2csc(Nc3cccc(C(F)(F)F)c3)n2)c(F)cc1F [I-165]
- EC50 (AHR [1]): < 10 nM
- EC50 (AHR [2]): < 10 nM

SMILES: Nc1ccc(F)c(-c2csc(Nc3cccc(C(F)(F)F)c3)n2)c1 [I-166]
- EC50 (AHR [1]): < 10 nM
- EC50 (AHR [2]): < 10 nM

SMILES: COC(=O)/C(C)=N/Nc1cccc(-c2csc(Nc3cccc(C(F)(F)F)c3)n2)c1 [I-167]
- EC50 (AHR [1]): 100 to 1000 nM
- EC50 (AHR [2]): 100 to 1000 nM

SMILES: Nc1ccnc(-c2csc(Nc3cccc(C(F)(F)F)c3)n2)c1 [I-168]
- EC50 (AHR [1]): > 1000 nM
- EC50 (AHR [2]): > 1000 nM

SMILES: Fc1ccc(/N=N/c2ccc(F)c(-c3csc(Nc4cccc(C(F)(F)F)c4)n3)c2)cc1-c1csc(Nc2cccc(C(F)(F)F)c2)n1 [I-169]
- EC50 (AHR [1]): 100 to 1000 nM
- EC50 (AHR [2]): 100 to 1000 nM

SMILES: O=C(Nc1cncc(-c2csc(Nc3cccc(C(F)(F)F)c3)n2)c1)Nc1cncc(-c2csc(Nc3cccc(C(F)(F)F)c3)n2)c1 [I-170]
- EC50 (AHR [1]): 10 to 100 nM
- EC50 (AHR [2]): 10 to 100 nM

SMILES: Fc1ccc(-c2csc(Nc3cccc(C(F)(F)F)c3)n2)cc1/N=N/c1cc(-c2csc(Nc3cccc(C(F)(F)F)c3)n2)ccc1F [I-171]
- EC50 (AHR [1]): > 1000 nM
- EC50 (AHR [2]): > 1000 nM
